Measurements from article PMC8329197, “Compounds targeting OSBPL7 increase ABCA1-dependent cholesterol efflux preserving kidney function in two models of kidney disease” (Nature Communications, 2021).
“And” between values parts separate entries of the source, which are not always exact repeats. Equal entries are not always repeated.

Columns and labels:
[1] = system: human THP1 macrophages; experiment: apoAI-mediated (ABCA1) cholesterol efflux from cholesterol-loaded THP1 macrophages; assay type: cell-based; set-up: ABCA1 Efflux %: dose or concentration left out as unconfirmed
[2] = system: ABCA1 protein; experiment: ABCA1 western blot in podocyte whole-cell lysates; assay type: cell-based, human; settings: Cpd G 10 µM, Cpd A 5 µM; podocytes
Experimental: Cell lines were purchased from ATCC and subcultured for no more than passage 15, except for human podocytes, which were originally from Dr Jochen Reiser. Conditionally immortalized human podocytes were cultured under permissive conditions at 33 °C, in RPMI medium (Corning) containing 10% FBS (GIBCO), 1% penicillin/streptomycin, 0.01 mg/ml recombinant human insulin, 0.0055 mg/ml human transferrin (substantially iron-free), and 0.005 μg/ml sodium selenite (ITS, Corning). To induce differentiation, podocytes were cultured at 37 °C for 14 days in RPMI medium containing 10% FBS (GIBCO) and 1% penicillin/streptomycin. Differentiated podocytes were starved in RPMI-0.2% FBS for 18 h and then treated with 1 μM, 5 μM, and 10 μM of compounds freshly prepared in DMSO for 18 h at 37 °C as indicated.
Lysates, or cell fractions were incubated in Laemmli buffer at 55 °C for 10 min under reducing conditions. A total of 30 μg of protein from cell lysates or one-third of the volume collected in cell fraction preparations was separated by SDS-PAGE in 4–20% gradient gels (Biorad) and proteins were then transferred to PVDF membranes. […] Signals were detected after incubation with Westernbright ECL HRP substrate (Advansta) and luminescence signals were captured with Azure C600 Gel Imaging workstation (Azure Biosystems Inc, USA) or X-ray films.

[3] = system: T1, OSBPL7; experiment: Competition with ^3H-Cpd K UV cross-linking to FLAG-tagged OSBPL7 in HEK293 cells (immunoprecipitation, autoradiography); assay type: binding, human; set-up: OSBP7 percentage of inhibition / OSBP7 percentage of inhibition, average: concentration or dose not given beside the values; OSBPL7 Competition %: dose or concentration left out as unconfirmed
T1 construct: Plasmids expressing each as a full-length protein with a C-terminal FLAG tag were obtained; expressed in transfected cells; host or cells: HEK293
Experimental: Briefly, a plasmid expressing a candidate target of interest fused with a FLAG tag was transfected into HEK293 cells. After 24 h, tritiated compound K at a concentration capable of inducing ABCA1-mediated cholesterol efflux (1.0 μM) was added for 3 h, then the live cells were exposed to UV-light (ʎ = 336 nm) to query potential compound/target cross-linking in situ. Cell lysates were prepared, the expressed protein was then selectively immunoprecipitated using an anti-FLAG antibody coupled to sepharose beads, bound proteins were separated by SDS-PAGE, and two identical blots were prepared and probed by western blot and by autoradiography to detect protein expression and presence or absence of compound crosslinking, respectively. The flow chart of this screen is illustrated in Fig. 2. Figure 2d illustrates the ability of Cpd A and Cpd G to displace tritiated Cpd K from overexpressed and immunoprecipitated OSBPL7. Figure 3b illustrates the use of this assay to detect binding of tritiated Cpd K to overexpressed and immunoprecipitated variants of OSBPL7 containing point mutations in the predicted oxysterol binging pocket of OSBPL7. The advantages of this method are: i. the use of plasmid transfection leads to high expression of each candidate which reduces the likelihood to miss an authentic target for those which may be expressed at low endogenous levels, ii. the interaction of the chemical probe with its target occurs in a relevant biological context (live cells) at a pharmacologically active concentration, and iii. immunoprecipitation allows the expressed protein of interest to be purified from background proteins, substantially improving the signal/noise ratio.

[4] = system: Col4a3 KO mice; experiment: Alport syndrome model: serum cholesterol and triglycerides; assay type: in vivo, mouse
[5] = system: Col4a3 KO mice; experiment: Alport syndrome model: survival study, treatment from 6 weeks of age
[6] = system: Col4a3 KO mice; experiment: Alport syndrome model: mesangial expansion score in PAS-stained kidney sections; assay type: in vivo, mouse; settings: age 8 weeks, Cpd G 100 mg/Kg/day
Experimental: (§1) Formalin-fixed paraffin-embedded kidney cortex sections 4 μm thick were stained with Periodic acid-Schiff (PAS). The slides were analyzed by a renal pathologist in a double-blind design. Glomerular sclerosis, (global and segmental), podocyte hypertrophy and podocyte hyperplasia were expressed as the percentage of glomeruli found with these abnormalities. Tubular microcysts and interstitial inflammation were scored on a 0–4 scale where 0 = 0%, 0.5 = 1–10%, 1 = 11–25%, 2: 26–50 %, 3: 51–75%, and 4 = more than 75% damage.

[7] = system: Adriamycin (ADR)-induced nephropathy in Balb/c mice; experiment: ADR nephropathy: blinded histology of PAS-stained kidney sections; assay type: in vivo, mouse
Experimental: as §1

[8] = Free fraction, man; assay type: in vitro ADME; settings: rat
[9] = system: CYPs (HLM.); experiment: CYP inhibition in HLM; assay type: in vitro ADME, human
[10] = single experiments (3 per compound)
[11] = ADR + Cpd G 100 mg/Kg, single animals
[12] = score 0: 0%, 0.5: 1–10%, 1: 11–25%, 2: 26–50%, 3: 51–75%, 4: >75%, single animals

O=C(N[C@@H]1CCCC[C@H]1O)c1ccc(OCC(F)(F)F)c(-c2ccc(Cl)c(Cl)c2)n1 [Cpd A]
ABCA1 percentage of induction, average ([1]; average of 3): 91%
ABCA1 Efflux % ([1]; average(SEM)): 91(4.9) %
ABCA1 percentage of induction [1, 10]: 81% and 94% and 97%
ABCA1 protein levels in whole-cell lysates [2]: significantly increased ABCA1 protein levels
OSBP7 percentage of inhibition, average ([3]; average of 3): 65%
OSBPL7 Competition % ([3]; average(SEM)): 65(8.1) %
OSBP7 percentage of inhibition [3, 10]: 50% and 78% and 67%
Competition for ^3H-Cpd K binding to OSBPL7 ([3]; unlabeled Cpd K at 50-fold excess, Cpd A, Cpd G 10 and 50 µM): effective competitors

O=C(N[C@@H]1CCCC[C@H]1O)c1cnc(OCC(F)(F)F)c(-c2ccc(Cl)c(Cl)c2)c1 [Cpd G]
SERUM TRIGLYCERIDES ([4]; 8 week-old Col4a3 KO, Cpd G 4 weeks, single animals): 78 mg/dL and 59 mg/dL and 83 mg/dL and 72 mg/dL
SERUM CHOLESTEROL ([4]; Col4a3 KO, Cpd G 100 mg/kg): no effect on serum cholesterol
SERUM TRIGLYCERIDES ([4]; Col4a3 KO, Cpd G 100 mg/kg): tended to reduce serum triglycerides
SERUM CHOLESTEROL ([4]; Col4a3 KO, Cpd G 28 days, single animals): 94 mg/dL and 139 mg/dL and 205 mg/dL and 126 mg/dL
SURVIVAL CURVE: day with status 1= dead ([5]; Col4A3 KO, Cpd G 100 mg/Kg/day started at week 6, single animals): 67 days and 70 days and 73 days and 78 days
Increased life span compared to controls ([5]; Col4a3 KO, treatment initiated at 6 weeks of age): approximately 15%
MESANGIAL EXPANSION (scale 1-5), Median [6]: 2
MESANGIAL EXPANSION (scale 1-5) ([6]; single animals): 2 and 2.5 and 1.5
Global glomerular sclerosis (% of gloms with), median ([7]; ADR + Cpd G 100 mg/Kg): 0%
Interstitial Inflammation (scale 0-4), Range ([7]; ADR + Cpd G 100 mg/Kg): 0-0.5
Mesangial expansion (scale 0-5), Range ([7]; ADR + Cpd G 100 mg/Kg): 1-2
Podocyte hyperplasia (% of gloms with), median ([7]; ADR + Cpd G 100 mg/Kg): 0%
Segmental glomerular sclerosis (% of gloms with), median ([7]; ADR + Cpd G 100 mg/Kg): 0%
Tubular microcysts (scale 0-4), Range ([7]; ADR + Cpd G 100 mg/Kg): 0 -1
podocyte hypertrophy (% of gloms with), median ([7]; ADR + Cpd G 100 mg/Kg): 0%
Global Glom. Sclerosis, % of glomeruli with [7, 11]: 0%
Mesangial Expansion (Scale 0-5) [7, 11]: 1.25 and 1.5 and 1
Podocyte Hyperplasia, % of glomeruli with [7, 11]: 0%
Podocyte Hypertrophy, % of glomeruli with [7, 11]: 0%
Segmental Glom. Sclerosis, % of glomeruli with [7, 11]: 0%
Interstitial Inflammation (Scale 0-4) [7, 12]: 0 and 0.5
Tubular Microcysts (Scale 0-4) [7, 12]: 1 and 0 and 0.5
fraction unbound [8]: < 0.01
CYPs (HLM.) [9]: > 25 µM
